Test results as given in patent US20140200233A1, “USE OF MAD2L2 AS A STRATIFICATION MARKER IN THE TREATMENT OF BREAST TUMOURS WITH NOVEL PAN-CDK INHIBITORS” (BAYER INTELLECTUAL PROPERTY GMBH, priority 2011, published 2014).

Key:
Format in all cases: cell-based
NCI-H661 = assay: Proliferation assay, Method 2 (Vybrant MTT); conditions: Homo sapiens, NCI-H661 (non-small-cell lung carcinoma)
ZR-75-1 = assay: Proliferation assay, Method 2 (Vybrant MTT); conditions: Homo sapiens, ZR-75-1 breast tumour cell line
T-47D = assay: Proliferation assay, Method 2 (Vybrant MTT); conditions: Homo sapiens, T47D, T-47D breast tumour cell line
Hs 578T = assay: Proliferation assay, Method 2 (Vybrant MTT); conditions: Homo sapiens, Hs 578T breast tumour cell line
NCI-H2170 = assay: Proliferation assay, Method 2 (Vybrant MTT); conditions: Homo sapiens
NCI-H2030 = assay: Proliferation assay, Method 2 (Vybrant MTT); conditions: Homo sapiens, NCI-H2030 (non-small-cell lung carcinoma)
NCI-H522 = assay: Proliferation assay, Method 2 (Vybrant MTT); conditions: Homo sapiens, NCI-H522 (non-small-cell lung carcinoma)
NCI-H1048 = assay: Proliferation assay, Method 2 (Vybrant MTT); conditions: Homo sapiens, NCI-H1048 (small-cell lung carcinoma)
NCI-H1793 = assay: Proliferation assay, Method 2 (Vybrant MTT); conditions: Homo sapiens, NCI-H1793 (non-small-cell lung carcinoma)
Caki2 = assay: Proliferation assay, Method 1 (crystal violet); conditions: Homo sapiens, CAKI-2, 96 h, Caki2 renal carcinoma cell line, 4 days
Protocol: (§1) This assay was used for the following cell lines: MCF 10A, SK-BR-3, MCF7, HCT 116, HT-29, SW480, Caco-2, MIAPaCa-2, DU145, PC3, HeLa, Caki2, 786-0, A-375, NCI-H460, NCI-H69, NCI-H1975, A549.
(§2) Cultivated human tumour cells (originally obtained from ATCC, HeLa-MaTu and HeLa-MaTu-ADR, originally obtained from Epo GmbH, Berlin) were plated in a density of from 1000 to 5000 cells/measurement point, depending on the growth rate of the cell line, in a 96-well multititre plate in 200 μl of growth medium (DMEM/HAMS F12, 2 mM L-glutamine, 10% foetal calf serum). After 24 hours, the cells of one plate (zero-point plate) were stained with crystal violet (see below), while the medium of the other plates was replaced by fresh culture medium (200 μl) with added test substances in various concentrations (0 μM, and in the range of 0.01-30 μM; the final concentration of the solvent dimethyl sulphoxide was 0.5%). The cells were incubated in the presence of the test substances for 4 days. Cell proliferation was determined by staining the cells with crystal violet: the cells were fixated by addition of 20 μl/measuring point of an 11% strength glutaraldehyde solution for 15 min at room temperature. After the fixated cells had been washed three times with water, the plates were dried at room temperature. The cells were stained by addition of 100 μl/measuring point of a 0.1% strength crystal violet solution (pH adjusted to pH 3 by addition of acetic acid). After the stained cells had been washed three times with water, the plates were dried at room temperature. The dye was dissolved by addition of 100 μl/measuring point of a 10% strength acetic acid solution. The absorption was determined photometrically at a wavelength of 595 nm. The change in percent of the cell growth was calculated by normalizing the measured values to the absorption values of the zero-point plate (=0%) and the absorption of the untreated (0 μM) cells (=100%). The measured data were normalized to 0% inhibition (cell proliferation without inhibitor) and 100% inhibition (zero-point plate). The IC50 values were determined using a 4-parameter fit with the aid of proprietary software.

PC3 = assay: Proliferation assay, Method 1 (crystal violet); conditions: Homo sapiens, PC-3, 96 h, PC3 prostate carcinoma cell line, 4 days
Protocol: as §1, §2

Caco-2 = assay: Proliferation assay, Method 1 (crystal violet); conditions: Homo sapiens, 96 h, Caco-2 colon carcinoma cell line, 4 days
Protocol: as §1, §2

786-O = assay: Proliferation assay, Method 1 (crystal violet); conditions: Homo sapiens, 786-0, 96 h, 786-O renal carcinoma cell line, 4 days
Protocol: as §1, §2

MIAPaCa-2 = assay: Proliferation assay, Method 1 (crystal violet); conditions: Homo sapiens, MIA PaCa-2, 96 h, MIAPaCa-2 pancreas carcinoma cell line, 4 days
Protocol: as §1, §2

DU145 = assay: Proliferation assay, Method 1 (crystal violet); conditions: Homo sapiens, DU-145, 96 h, DU145 prostate carcinoma cell line, 4 days
Protocol: as §1, §2

SK-BR-3 = assay: Proliferation assay, Method 1 (crystal violet); conditions: Homo sapiens, 96 h, SK-BR-3 breast tumour cell line, 4 days
Protocol: as §1, §2

HCT 116 = assay: Proliferation assay, Method 1 (crystal violet); conditions: Homo sapiens, 96 h, HCT 116 colon carcinoma cell line, 4 days
Protocol: as §1, §2

MCF7 = assay: Proliferation assay, Method 1 (crystal violet); conditions: Homo sapiens, 96 h, MCF7 breast tumour cell line, 4 days
Protocol: as §1, §2

HeLa = assay: Proliferation assay, Method 1 (crystal violet); conditions: Homo sapiens, 96 h, HeLa cervix carcinoma cell line, 4 days
Protocol: as §1, §2

HT-29 = assay: Proliferation assay, Method 1 (crystal violet); conditions: Homo sapiens, 96 h, HT-29 colon carcinoma cell line, 4 days
Protocol: as §1, §2

SW480 = assay: Proliferation assay, Method 1 (crystal violet); conditions: Homo sapiens, 96 h, SW480 colon carcinoma cell line, 4 days
Protocol: as §1, §2

A-375 = assay: Proliferation assay, Method 1 (crystal violet); conditions: Homo sapiens, 96 h, A-375 melanoma cell line, 4 days
Protocol: as §1, §2

NCI-H1437 = assay: Proliferation assay, Method 2 (Vybrant MTT); conditions: Homo sapiens, NCI-H1437 (non-small-cell lung carcinoma)
EVSA-T = assay: Proliferation assay, Method 2 (Vybrant MTT); conditions: Homo sapiens, EVSA-T breast tumour cell line
DU-4475 = assay: Proliferation assay, Method 2 (Vybrant MTT); conditions: Homo sapiens, DU-4475 breast tumour cell line
NCI-H1703 = assay: Proliferation assay, Method 2 (Vybrant MTT); conditions: Homo sapiens, NCI-H1703 (non-small-cell lung carcinoma)
NCI-H1563 = assay: Proliferation assay, Method 2 (Vybrant MTT); conditions: Homo sapiens, NCI-H1563 (non-small-cell lung carcinoma)
NCI-H358 = assay: Proliferation assay, Method 2 (Vybrant MTT); conditions: Homo sapiens, NCI-H358 (non-small-cell lung carcinoma)
NCI-H23 = assay: Proliferation assay, Method 2 (Vybrant MTT); conditions: Homo sapiens, NCI-H23 (non-small-cell lung carcinoma)
MDA-MB-231 = assay: Proliferation assay, Method 2 (Vybrant MTT); conditions: Homo sapiens, MDA-MB-231 breast tumour cell line
KPL-1 = assay: Proliferation assay, Method 2 (Vybrant MTT); conditions: Homo sapiens, KPL-1 breast tumour cell line
NCI-H810 = assay: Proliferation assay, Method 2 (Vybrant MTT); conditions: Homo sapiens, NCI-H810 (non-small-cell lung carcinoma)
NCI-H441 = assay: Proliferation assay, Method 2 (Vybrant MTT); conditions: Homo sapiens, NCI-H441 (papillary lung carcinoma)
NCI-H2347 = assay: Proliferation assay, Method 2 (Vybrant MTT); conditions: Homo sapiens, NCI-H2347 (non-small-cell lung carcinoma)
MDA-MB-453 = assay: Proliferation assay, Method 2 (Vybrant MTT); conditions: Homo sapiens, MDA-MB-453 breast tumour cell line
MDA-MB-468 = assay: Proliferation assay, Method 2 (Vybrant MTT); conditions: Homo sapiens, MDA-MB-468 breast tumour cell line
BT-549 = assay: Proliferation assay, Method 2 (Vybrant MTT); conditions: Homo sapiens, BT-549 breast tumour cell line
ChaGo-K-1 = assay: Proliferation assay, Method 2 (Vybrant MTT); conditions: Homo sapiens, ChaGo-K-1 (undifferentiated bronchial carcinoma)
NCI-H2228 = assay: Proliferation assay, Method 2 (Vybrant MTT); conditions: Homo sapiens, NCI-H2228 (non-small-cell lung carcinoma)
NCI-H69 = assay: Proliferation assay (listed under Method 1 and Method 2); conditions: Homo sapiens; NCI-H69 (small-cell lung carcinoma); method 1 or 2
Protocol: as §1, §2

NCI-H460 = assay: as above; conditions: Homo sapiens; NCI-H460 (non-small-cell lung carcinoma); method 1 or 2
Protocol: as §1, §2

MCF 10A = assay: as above; conditions: Homo sapiens; MCF 10A breast cell line; method 1 or 2
Protocol: as §1, §2

A549 = assay: as above; conditions: Homo sapiens; A549 (non-small-cell lung carcinoma); method 1 or 2
Protocol: as §1, §2

NCI-H1975 = assay: as above; conditions: Homo sapiens; NCI-H1975 (non-small-cell lung carcinoma); method 1 or 2
Protocol: as §1, §2

SK-MES-1 = assay: Proliferation assay, Method 2 (Vybrant MTT); conditions: Homo sapiens, SK-MES-1 (squamous-cell carcinoma)
NCI-H226 = assay: Proliferation assay, Method 2 (Vybrant MTT); conditions: Homo sapiens, NCI-H226 (mesothelioma)
BT-20 = assay: Proliferation assay, Method 2 (Vybrant MTT); conditions: Homo sapiens, BT-20 breast tumour cell line
NCI-H1838 = assay: Proliferation assay, Method 2 (Vybrant MTT); conditions: Homo sapiens, NCI-H1838 (non-small-cell lung carcinoma)
BT-474 = assay: Proliferation assay, Method 2 (Vybrant MTT); conditions: Homo sapiens, BT-474 breast tumour cell line
NCI-H1581 = assay: Proliferation assay, Method 2 (Vybrant MTT); conditions: Homo sapiens, NCI-H1581 (non-small-cell lung carcinoma)
MDA-MB-435s = assay: Proliferation assay, Method 2 (Vybrant MTT); conditions: Homo sapiens, MDA-MB-435s breast tumour cell line

- IC50 (NCI-H661): 53.1 nM
- IC50 (T-47D): 33.8 nM
- IC50 (NCI-H2170): 48.7 nM
- IC50 (NCI-H2030): 17.7 nM
- IC50 (NCI-H522): 65.4 nM
- IC50 (NCI-H1048): 25 nM
- IC50 (NCI-H1793): 22.5 nM
- IC50 (PC3): 25 nM
- IC50 (Caco-2): 16 nM
- IC50 (786-O): 20 nM
- IC50 (MIAPaCa-2): 21 nM
- IC50 (DU145): 8 nM
- IC50 (SK-BR-3): 13 nM
- IC50 (HCT 116): 18 nM
- IC50 (MCF7): 15 nM
- IC50 (HeLa): 12 nM
- IC50 (HT-29): 29 nM
- IC50 (SW480): 15 nM
- IC50 (A-375): 14 nM
- IC50 (NCI-H1437): 69.9 nM
- IC50 (NCI-H1703): 53.6 nM
- IC50 (NCI-H1563): 59.1 nM
- IC50 (NCI-H358): 19.4 nM
- IC50 (NCI-H23): 45.4 nM
- IC50 (MDA-MB-231): 20.2 nM
- IC50 (NCI-H810): 9.01 nM
- IC50 (NCI-H441): 10 nM
- IC50 (NCI-H2347): 28 nM
- IC50 (MDA-MB-453): 15.1 nM
- IC50 (MDA-MB-468): 28.8 nM
- IC50 (BT-549): 84.1 nM
- IC50 (NCI-H2228): 52.1 nM
- IC50 (NCI-H69): 27 nM
- IC50 (NCI-H460): 27 nM
- IC50 (A549): 31 nM
- IC50 (NCI-H1975): 24 nM
- IC50 (SK-MES-1): 26.5 nM
- IC50 (NCI-H226): 54.6 nM
- IC50 (BT-20): 38.1 nM
- IC50 (NCI-H1838): 15.9 nM
- IC50 (BT-474): 42.6 nM
- IC50 (NCI-H1581): 53.8 nM
- IC50 (MDA-MB-435s): 36.4 nM
Structure (SMILES): C[C@@H](O)[C@@H](C)Oc1nc(Nc2ccc([S@](=N)(=O)C3CC3)cc2)ncc1C(F)(F)F [Compound A, (2R,3R)-3-{[2-{[4-(R-cyclopropylsulphonimidoyl)phenyl]amino}-5-(trifluoromethyl)pyrimidin-4-yl]oxy}butan-2-ol]
- IC50 (ZR-75-1): 32.5 nM
- IC50 (Hs 578T): 16.8 nM
- IC50 (Caki2): 26 nM
- IC50 (EVSA-T): 45 nM
- IC50 (DU-4475): 37.3 nM
- IC50 (KPL-1): 6.44 nM
- IC50 (ChaGo-K-1): 69.4 nM
- IC50 (MCF 10A): 20 nM
